From ChEMBL document CHEMBL1201862, “PubChem BioAssay data set” (2004) come the findings set out here.

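The compound was tested at five concentrations on cells cultured in 96-well plates, with a 48-hour exposure period. The concentration for 50% growth inhibition is given as GI50.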 Activity calls are given as the source filed them. Cut-off read from the data, not from the text of the source: active = GI50 up to about 1.1 µM and inactive = higher.

Test systems include EKVX; MCF7; SF-268; HCT-116; SNB-19; SR; SK-MEL-28; CAKI-1; UO-31; SN12C; NCI-H522; MDA-MB-231; SF-539; NCI-H460; OVCAR-4; OVCAR-8; MDA-MB-435; HOP-62; RXF 393; COLO 205.
Holding throughout (experiment): NCI anticancer screen, dose series, 48 h

With `Clc1ccc(-c2noc(CN3CCCCC3)n2)cc1`, the GI50 in the experiment with EKVX is 54 µM (inactive); in the experiment with MCF7 it was > 100 µM (inactive); with SF-268, > 100 µM (inactive); with HCT-116 it was 90.2 µM (inactive); with SNB-19, > 100 µM (inactive); in the experiment on SR, 63.1 µM (inactive). Also, the GI50 was > 100 µM (inactive) in the experiment on SK-MEL-28; > 100 µM (inactive) in the experiment on CAKI-1; > 100 µM (inactive) in the experiment with UO-31; > 100 µM (inactive) in the experiment with SN12C; 81.1 µM (inactive) with NCI-H522; > 100 µM (inactive) in the experiment on MDA-MB-231. Besides, the GI50 in the experiment on SF-539, in the experiment on NCI-H460, in the experiment with OVCAR-4, in the experiment on OVCAR-8, with MDA-MB-435 and with HOP-62 was > 100 µM (inactive) in each case. The GI50 was 44 µM (inactive) in the experiment on RXF 393 and 90.2 µM (inactive) with COLO 205.

Consider `CCOC(=O)C(NC(=O)CC)(Nc1ccc(S(=O)(=O)Nc2ccc(OC)nn2)cc1)C(F)(F)F` (stereo not given), for which the GI50 with EKVX, with MCF7, in the experiment with SF-268, in the experiment on HCT-116, in the experiment on SNB-19 and in the experiment with SR was > 100 µM (inactive) in each case. Also, the GI50 in the experiment on SK-MEL-28, in the experiment on CAKI-1, with UO-31, with SN12C, in the experiment on NCI-H522 and in the experiment with MDA-MB-231 was > 100 µM (inactive) each time. The GI50 in the experiment with SF-539, with NCI-H460, with OVCAR-4, in the experiment with OVCAR-8, in the experiment with MDA-MB-435 and in the experiment with HOP-62 was > 100 µM (inactive) in each case. In addition, the GI50 with RXF 393 and with COLO 205 was > 100 µM (inactive) throughout.

With `CC(C)=CCc1cc(C2COc3cc4c(c(O)c3C2=O)C=CC(C)(C)O4)c(O)cc1O` (stereo not given), the GI50 in the experiment with EKVX was 12.7 µM (inactive); in the experiment on MCF7, 11.8 µM (inactive); in the experiment with SF-268, 13.2 µM (inactive); in the experiment on HCT-116, 17.3 µM (inactive); in the experiment with SNB-19 it was 19.3 µM (inactive); with SR, 6.78 µM (inactive). The GI50 with SK-MEL-28 was 22.4 µM (inactive); in the experiment with CAKI-1, 17.2 µM (inactive); with UO-31, 12.8 µM (inactive); in the experiment with SN12C, 13.5 µM (inactive); in the experiment with NCI-H522 it was 11.6 µM (inactive); with MDA-MB-231 it was 14.2 µM (inactive). In addition, the GI50 with SF-539 was 16.5 µM (inactive); in the experiment on NCI-H460, 14.3 µM (inactive); in the experiment on OVCAR-4 it was 10.6 µM (inactive); in the experiment on OVCAR-8, 21.5 µM (inactive); in the experiment on MDA-MB-435, 16 µM (inactive); in the experiment with HOP-62 it was 17.8 µM (inactive). Moreover, the values for the GI50 in the experiment on RXF 393 and in the experiment with COLO 205 were 6.59 µM (inactive) and 20.2 µM (inactive), respectively.

Consider `C=CCNC1=C2C[C@@H](C)C[C@@H](OC)[C@H](OC(=O)CCN(C)C)[C@H](C)/C=C(\C)[C@@H](OC(N)=O)[C@H](OC)/C=C\C=C(/C)C(=O)NC(=CC1=O)C2=O`, for which the GI50 in the experiment with EKVX was 1.35 µM (inactive); with MCF7, 0.0295 µM (active); with SF-268, 1.35 µM (inactive); with HCT-116 it was 0.134 µM (active); with SNB-19 it was 1.17 µM (inactive); in the experiment on SR, 0.0204 µM (active). For the same compound, the GI50 was 0.171 µM (active) with SK-MEL-28; 1.88 µM (inactive) in the experiment with CAKI-1; 0.822 µM (active) in the experiment with UO-31; 0.0869 µM (active) in the experiment with SN12C; 0.125 µM (active) in the experiment on NCI-H522; 2.05 µM (inactive) in the experiment on MDA-MB-231. Moreover, the GI50 in the experiment with SF-539 was 0.0562 µM (active); in the experiment with NCI-H460, 0.0627 µM (active); with OVCAR-4, 3.97 µM (inactive); with OVCAR-8, 0.324 µM (active); with MDA-MB-435 it was 0.053 µM (active); in the experiment with HOP-62, 0.044 µM (active). The GI50 in the experiment on RXF 393 is 0.182 µM (active); in the experiment on COLO 205 it was < 0.0188 µM (active).

With `Cc1ccc(S(=O)(=O)N2CCN(CCN(C)CCN3CCN(S(=O)(=O)c4ccc(C)cc4)CC3)CC2)cc1`, the GI50 in the experiment on EKVX was 22.5 µM (inactive); with MCF7, 17.7 µM (inactive); with SF-268 it was 17.2 µM (inactive); in the experiment with HCT-116 it was 17 µM (inactive); in the experiment on SNB-19 it was 26.2 µM (inactive); with SR, 18.5 µM (inactive). The GI50 in the experiment with SK-MEL-28 is 17.1 µM (inactive); with CAKI-1, 19.4 µM (inactive); in the experiment with UO-31 it was 13.9 µM (inactive); with SN12C it was 18.5 µM (inactive); in the experiment on NCI-H522 it was 19.8 µM (inactive); in the experiment with MDA-MB-231, 20.6 µM (inactive). The GI50 was 16.4 µM (inactive) with SF-539; 17.5 µM (inactive) in the experiment with NCI-H460; 19.5 µM (inactive) with OVCAR-4; 17.4 µM (inactive) in the experiment with OVCAR-8; 17.7 µM (inactive) in the experiment on MDA-MB-435; 17.8 µM (inactive) in the experiment with HOP-62. Further, the GI50 is 14.3 µM (inactive) in the experiment on RXF 393 and 18.2 µM (inactive) with COLO 205.

Consider `CC(=O)OC(Cc1ccc2ccccc2n1)(C(F)(F)F)C(F)(F)F`, for which the GI50 in the experiment on EKVX is 4.62 µM (inactive); in the experiment on MCF7, 0.063 µM (active); in the experiment with SF-268 it was 2.17 µM (inactive); in the experiment with HCT-116 it was 1.31 µM (inactive); with SNB-19, 3.76 µM (inactive); with SR, 0.11 µM (active). Besides, the GI50 is 1.42 µM (inactive) in the experiment with SK-MEL-28; 0.802 µM (active) with CAKI-1; 2.22 µM (inactive) in the experiment with UO-31; 1.27 µM (inactive) in the experiment with SN12C; 0.519 µM (active) in the experiment on NCI-H522; 1.28 µM (inactive) with MDA-MB-231. In addition, the GI50 is 2.32 µM (inactive) in the experiment on SF-539; 6 µM (inactive) in the experiment with NCI-H460; 2.45 µM (inactive) in the experiment with OVCAR-4; 1.69 µM (inactive) with OVCAR-8; 1.21 µM (inactive) with MDA-MB-435; 10.4 µM (inactive) in the experiment with HOP-62. The GI50 in the experiment on RXF 393 was 0.675 µM (active); in the experiment with COLO 205, 0.217 µM (active).

As for `Cc1c(C)c(CC(=O)N2CC2)c(C)c(C)c1CC(=O)N1CC1`, the GI50 is 23.2 µM (inactive) in the experiment with EKVX; 3.22 µM (inactive) in the experiment on MCF7; 2.41 µM (inactive) in the experiment with SF-268; 9.02 µM (inactive) in the experiment on HCT-116; 10.6 µM (inactive) in the experiment with SNB-19; 0.33 µM (active) in the experiment with SR. The GI50 in the experiment with SK-MEL-28 was 17 µM (inactive); in the experiment on CAKI-1, 2.12 µM (inactive); in the experiment with UO-31, 13.5 µM (inactive); with SN12C it was 4.03 µM (inactive); with NCI-H522, 9.02 µM (inactive); in the experiment with MDA-MB-231, 19.2 µM (inactive). Also, the GI50 is 3.52 µM (inactive) with SF-539; 0.337 µM (active) in the experiment with NCI-H460; 19.1 µM (inactive) with OVCAR-4; 10.2 µM (inactive) in the experiment on OVCAR-8; 16 µM (inactive) with MDA-MB-435; 5.21 µM (inactive) in the experiment on HOP-62. Further, the GI50 with RXF 393 is 3.61 µM (inactive); in the experiment with COLO 205 it was 14.7 µM (inactive).

In the case of `COc1c(OC(C)=O)c(OC(C)=O)cc2c1-c1ccc(SC)c(=O)cc1C(NC(C)=O)CC2` (stereo not given), the GI50 is 36.1 µM (inactive) in the experiment on EKVX; 0.124 µM (active) in the experiment on MCF7; 0.472 µM (active) in the experiment on SF-268; 0.685 µM (active) in the experiment on HCT-116; 0.42 µM (active) in the experiment with SNB-19; 0.448 µM (active) with SR. In addition, the GI50 in the experiment on SK-MEL-28 was 0.342 µM (active); in the experiment with CAKI-1, 6.89 µM (inactive); in the experiment with UO-31, 71.9 µM (inactive); in the experiment with SN12C it was 0.993 µM (active); with NCI-H522 it was 0.204 µM (active); in the experiment with MDA-MB-231 it was 0.512 µM (active). Moreover, the GI50 in the experiment on SF-539 was 0.254 µM (active); with NCI-H460, 2.9 µM (inactive); with OVCAR-4 it was 26 µM (inactive); with OVCAR-8 it was 1.49 µM (inactive); in the experiment with MDA-MB-435, 0.179 µM (active); with HOP-62, 0.681 µM (active). The figures for the GI50 in the experiment with RXF 393 and with COLO 205 were 3.66 µM (inactive) and 1.65 µM (inactive), respectively.
